Read-outs that look alike come from different tables or passages of the source.
Assays:
SOS1 = SOS1 (Homo sapiens (Human), UniProt Q07889); assay: Ras-SOS interaction assay (HTRF); assay type: biochemical
[1] = tested on: MIA PaCa-2 cells (K-Ras G12C); assay: Ras-SOS cellular growth inhibition assay (CellTiter-Glo, 3D); assay type: cell-based; settings: Homo sapiens
Outline: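 Growth read by CellTiter-Glo luminescence about 5 days after dosing with 3-fold dilutions (9 points), added one day post-seeding. Cells: MIA PaCa-2, 3D culture on ultra-low-attachment surface, medium DMEM/Ham's F12 plus 10% FCS and 2.5% horse serum; IC50 by four-parameter fit.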

[2] = tested on: NCI-H1975 cells (EGFR T790M L858R); assay: EGFR-SOS cellular inhibition assay (CellTiter-Glo, 3D); assay type: cell-based; settings: Homo sapiens
[3] = Metabolic (microsomal) stability assay; assay type: in vitro ADME; settings: mouse liver microsomes, T1/2; read-out: DMPK-invitro-metabolic Stability (Mouse T1/2)
Description: Example 12: Metabolic (Microsomal) Stability Assay

[4] = In vitro plasma protein binding (PPB); assay type: in vitro ADME; settings: percentage of free/unbound compound
[5] = K-RasG13D utilized, read-out: IC50 inhibition of SOS
[6] = MIA PaCa-2, 120 h, MIA PaCa-2, 3D proliferation, about 5 days, read-out: Bio-Cell-Prolif-3D (MiaPaca2 IC50)
[7] = 120 h, NCI-H1975, 3D proliferation, about 5 days, read-out: Bio-Cell-Prolif-3D (H1975 IC50)
[8] = K-RasG13D, read-out: IC50 value against SOS1
[9] = NCI-H1975, EGFR T790M L858R, read-out: IC50 in inhibiting growth of NCI-H1975 cell line
[10] = MIA PaCa-2, MIA PaCa-2, read-out: IC50 in inhibiting MIA PaCa-2 cell growth

Sequence of SOS1 (Q07889 564-1049): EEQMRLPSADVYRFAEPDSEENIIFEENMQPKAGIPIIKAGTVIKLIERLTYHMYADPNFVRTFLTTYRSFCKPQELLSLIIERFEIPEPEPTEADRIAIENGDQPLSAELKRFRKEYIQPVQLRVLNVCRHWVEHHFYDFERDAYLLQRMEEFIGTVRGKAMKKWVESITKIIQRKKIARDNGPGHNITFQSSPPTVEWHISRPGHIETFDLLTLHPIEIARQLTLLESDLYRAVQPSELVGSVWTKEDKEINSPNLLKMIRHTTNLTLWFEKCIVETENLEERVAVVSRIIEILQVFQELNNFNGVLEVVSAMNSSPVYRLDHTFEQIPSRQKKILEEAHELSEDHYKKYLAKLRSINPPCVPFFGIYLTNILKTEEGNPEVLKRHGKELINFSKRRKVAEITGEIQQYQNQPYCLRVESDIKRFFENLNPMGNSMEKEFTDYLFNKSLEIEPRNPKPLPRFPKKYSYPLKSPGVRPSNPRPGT

SMILES | IC50 (SOS1; [5]) | IC50 [1, 6] | IC50 [2, 7] | half-life [3] | IC50 (SOS1; [8]) | IC50 [2, 9] | DMPK-invitro-PPB (Mouse Unbound) [%] [4] | IC50 [1, 10]
Cc1nc(N[C@H](C)c2cccc(C(F)F)c2F)c2cc(C3(C#N)CC3)c(O[C@@H]3CCOC3)nc2n1 [Compound 298, 1-(4-(((R)-1-(3-(difluoromethyl)-2-fluorophenyl)ethyl)amino)-2-methyl-7-(((R)-tetrahydrofuran-3-yl)oxy)pyrido[2,3-d]pyrimidin-6-yl)cyclopropane-1-carbonitrile] | 100 to 1000 nM | ≤ 1000 nM | ≤ 1000 nM | 1.5 min | – | – | – | –
COc1nc2ncnc(N[C@H](C)c3cccc(C(F)(F)F)c3F)c2cc1C1CCN(C(C)C)CC1 [Compound 162, (R)-N-(1-(2-fluoro-3-(trifluoromethyl)phenyl)ethyl)-6-(1-isopropylpiperidin-4-yl)-7-methoxypyrido[2,3-d] pyrimidin-4-amine] | < 100 nM | ≤ 1000 nM | ≤ 1000 nM | – | < 50 nM | < 500 nM | 2.19% | –
COc1nc2nc(C)nc(N[C@H](C)c3cccc(C(F)(F)F)c3F)c2cc1C1CCS(=O)(=O)CC1 [Compound 120, (R)-4-(4-((1-(2-fluoro-3-(trifluoromethyl)phenyl)ethyl)amino)-7-methoxy-2-methylpyrido[2,3-d]pyrimidin-6-yl)tetrahydro-2H-thiopyran 1,1-dioxide] | < 100 nM | ≤ 1000 nM | ≤ 1000 nM | – | < 50 nM | < 500 nM | 0.73% | < 500 nM
COc1nc2ncnc(N[C@H](C)c3cccc(C(F)(F)F)c3F)c2cc1N1CCN(C(C)C)CC1 [Compound 159, (R)-N-(1-(2-fluoro-3-(trifluoromethyl)phenyl)ethyl)-6-(4-isopropylpiperazin-1-yl)-7-methoxypyrido[2,3-d] pyrimidin-4-amine] | < 100 nM | ≤ 1000 nM | ≤ 1000 nM | – | < 50 nM | < 500 nM | 3.43% | < 500 nM
COc1nc2ncnc(N[C@H](C)c3cccc(C(F)(F)F)c3F)c2cc1C1CCN(C2CCOCC2)CC1 [Compound 164, (R)-N-(1-(2-fluoro-3-(trifluoromethyl)phenyl)ethyl)-7-methoxy-6-(1-(tetrahydro-2H-pyran-4-yl)piperidin-4-yl)pyrido[2,3-d]pyrimidin-4-amine] | < 100 nM | ≤ 1000 nM | ≤ 1000 nM | – | < 50 nM | < 500 nM | 1.6% | < 500 nM
COc1nc2nc(C)nc(N[C@H](C)c3cccc(C(F)(F)F)c3C)c2cc1N1CCN(C2CCOCC2)CC1 [Compound 378, (R)-7-methoxy-2-methyl-N-(1-(2-methyl-3-(trifluoromethyl)phenyl)ethyl)-6-(4-(tetrahydro-2H-pyran-4-yl)piperazin-1-yl)pyrido[2,3-d]pyrimidin-4-amine] | < 100 nM | ≤ 1000 nM | ≤ 1000 nM | – | < 50 nM | < 500 nM | 0.14% | < 500 nM
COc1nc2ncnc(N[C@H](C)c3cccc(C(F)F)c3F)c2cc1N1CCN(C(C)C)CC1 [Compound 316, (R)-N-(1-(3-(difluoromethyl)-2-fluorophenyl)ethyl)-6-(4-isopropylpiperazin-1-yl)-7-methoxypyrido[2,3-d]pyrimidin-4-amine] | < 100 nM | 1000 to 10000 nM | ≤ 1000 nM | – | < 50 nM | < 500 nM | 9.83% | –
COc1nc2nc(C)nc(N[C@H](C)c3cccc(C(F)(F)F)c3C)c2cc1C1CCN(C(C)C)CC1 [Compound 236, (R)-6-(1-isopropylpiperidin-4-yl)-7-methoxy-2-methyl-N-(1-(2-methyl-3-(trifluoromethyl)phenyl)ethyl)pyrido [2,3-d]pyrimidin-4-amine] | < 100 nM | ≤ 1000 nM | ≤ 1000 nM | – | < 50 nM | < 500 nM | 0.11% | < 500 nM
COc1nc2nc(C)nc(N[C@H](C)c3cccc(C(F)(F)F)c3C)c2cc1N1CCN(C(C)C)CC1 [Compound 171, (R)-6-(4-isopropylpiperazin-1-yl)-7-methoxy-2-methyl-N-(1-(2-methyl-3-(trifluoromethyl)phenyl)ethyl)pyrido[2,3-d]pyrimidin-4-amine] | < 100 nM | ≤ 1000 nM | ≤ 1000 nM | – | < 50 nM | < 500 nM | 0.12% | –

Results, then the molecule that gave them:

IC50 (SOS1; [5]) | IC50 [1, 6] | IC50 [2, 7] | half-life [3] | IC50 (SOS1; [8]) | IC50 [2, 9] | DMPK-invitro-PPB (Mouse Unbound) [%] [4] | IC50 [1, 10] | SMILES
< 100 nM | ≤ 1000 nM | ≤ 1000 nM | – | < 50 nM | < 500 nM | 12.22% | < 500 nM | COc1nc2ncnc(N[C@H](C)c3cccc(C(F)(F)C(C)(C)O)c3F)c2cc1N1CCN(C(C)C)CC1 [Compound 273, (R)-1,1-difluoro-1-(2-fluoro-3-(1-((6-(4-isopropylpiperazin-1-yl)-7-methoxypyrido[2,3-d]pyrimidin-4-yl)amino)ethyl)phenyl)-2-methylpropan-2-ol]
< 100 nM | ≤ 1000 nM | ≤ 1000 nM | – | < 50 nM | < 500 nM | 19.85% | < 500 nM | COc1nc2ncnc(N[C@H](C)c3cccc(C(F)(F)C(C)(C)O)c3)c2cc1N1CCN(C(C)C)CC1 [Compound 202, (R)-1,1-difluoro-1-(3-(1-((6-(4-isopropylpiperazin-1-yl)-7-methoxypyrido [2,3-d]pyrimidin-4-yl)amino)ethyl)phenyl)-2-methylpropan-2-ol]
< 100 nM | ≤ 1000 nM | ≤ 1000 nM | – | < 50 nM | < 500 nM | 14.53% | < 500 nM | COc1nc2ncnc(N[C@H](C)c3cccc(C(F)F)c3F)c2cc1N1CCN(C)CC1 [Compound 156, (R)-N-(1-(3-(difluoromethyl)-2-fluorophenyl)ethyl)-7-methoxy-6-(4-methylpiperazin-1-yl)pyrido[2,3-d] pyrimidin-4-amine]
< 100 nM | ≤ 1000 nM | ≤ 1000 nM | – | < 50 nM | < 500 nM | 5.6% | < 500 nM | COc1nc2ncnc(N[C@H](C)c3cccc(C(C)(F)F)c3F)c2cc1C1CCS(=O)(=O)CC1 [Compound 267, (R)-4-(4-((1-(3-(1,1-difluoroethyl)-2-fluorophenyl)ethyl)amino)-7-methoxypyrido[2,3-d]pyrimidin-6-yl)tetrahydro-2H-thiopyran 1,1-dioxide]
< 100 nM | ≤ 1000 nM | ≤ 1000 nM | – | < 50 nM | < 500 nM | 2.67% | < 500 nM | COc1nc2ncnc(N[C@H](C)c3cccc(C(F)(F)F)c3F)c2cc1C1CCS(=O)(=O)CC1 [Compound 375, (R)-4-(4-((1-(2-fluoro-3-(trifluoromethyl)phenyl)ethyl)amino)-7-methoxypyrido[2,3-d]pyrimidin-6-yl)tetrahydro-2H-thiopyran 1,1-dioxide]
< 100 nM | ≤ 1000 nM | ≤ 1000 nM | – | < 50 nM | < 500 nM | 1.05% | – | COc1nc2ncnc(N[C@H](C)c3cccc(C(F)(F)F)c3C)c2cc1N1CCN(C2CCOCC2)CC1 [Compound 160, (R)-7-methoxy-N-(1-(2-methyl-3-(trifluoromethyl)phenyl)ethyl)-6-(4-(tetrahydro-2H-pyran-4-yl)piperazin-1-yl)pyrido[2,3-d]pyrimidin-4-amine]
– | ≤ 1000 nM | ≤ 1000 nM | – | < 50 nM | – | 2.93% | < 500 nM | COc1nc2ncnc(N[C@H](C)c3cccc(C(F)(F)F)c3C)c2cc1C1CCS(=O)(=O)CC1 [Compound 373, (R)-4-(7-methoxy-4-((1-(2-methyl-3-(trifluoromethyl)phenyl)ethyl)amino)pyrido[2,3-d]pyrimidin-6-yl)tetrahydro-2H-thiopyran 1,1-dioxide]
< 100 nM | ≤ 1000 nM | ≤ 1000 nM | – | < 50 nM | < 500 nM | 1.24% | < 500 nM | COc1nc2nc(C)nc(N[C@H](C)c3cccc(C(F)(F)F)c3F)c2cc1N1CCS(=O)(=O)CC1 [Compound 305, (R)-4-(4-((1-(2-fluoro-3-(trifluoromethyl)phenyl)ethyl)amino)-7-methoxy-2-methylpyrido[2,3-d]pyrimidin-6-yl)thiomorpholine 1,1-dioxide]
< 100 nM | ≤ 1000 nM | ≤ 1000 nM | – | < 50 nM | < 500 nM | 0.22% | < 500 nM | CCN1CCC(c2cc3c(N[C@H](C)c4cccc(C(F)(F)F)c4C)nc(C)nc3nc2OC)CC1 [Compound 351, (R)-6-(1-ethylpiperidin-4-yl)-7-methoxy-2-methyl-N-(1-(2-methyl-3-(trifluoromethyl)phenyl)ethyl)pyrido [2,3-d]pyrimidin-4-amine]

Reference: patent US11648254B2 (Kumquat Biosciences Inc., priority 2021, dated 2023)
